Laboratory results published in ChEMBL document CHEMBL3885881, “DrugMatrix”.

Organism: Rattus norvegicus
Assay: DrugMatrix - Regimen: Daily Repeat
Assay type: toxicity, organism-based, Sprague-Dawley
Set-up: regimen Daily Repeat, gender Male, age 6-8 weeks
Settings: in vivo, po, route oral GAVAGE, vehicle 100 % WATER; for ABSOLUTE BASOPHIL / ABSOLUTE EOSINOPHIL / ABSOLUTE LYMPHOCYTE / ABSOLUTE MONOCYTE / ABSOLUTE SEGMENTED NEUTROPHIL / BASOPHIL / EOSINOPHIL / ERYTHROCYTE COUNT / HEMATOCRIT / HEMOGLOBIN / LEUKOCYTE COUNT / LYMPHOCYTE / MEAN CORPUSCULAR HEMOGLOBIN / MEAN CORPUSCULAR HEMOGLOBIN CONCENTRATION / MEAN CORPUSCULAR VOLUME / MONOCYTE / NEUTROPHIL / NUCLEATED RED BLOOD CELLS / PLATELET COUNT: tissue Blood; for ALANINE AMINOTRANSFERASE / ALBUMIN / ALKALINE PHOSPHATASE / ASPARTATE AMINOTRANSFERASE / BLOOD UREA NITROGEN / CARBON DIOXIDE / CHLORIDE / CHOLESTEROL / CREATINE PHOSPHOKINASE / CREATININE / GLUCOSE / LACTATE DEHYDROGENASE / LIPASE / PHOSPHORUS / POTASSIUM / SODIUM / TOTAL BILIRUBIN / TOTAL PROTEIN / URIC ACID: tissue Plasma
[1] = 0.07 mg/kg, 120 h, dose level Low, time 5 day
[2] = 0.5 mg/kg, 72 h, dose level High, time 3 day
[3] = 0.5 mg/kg, 120 h, dose level High, time 5 day

In the case of `Cc1cc(C(C)(C)C)c(O)c(C)c1CC1=NCCN1` [OXYMETAZOLINE], the “ABSOLUTE BASOPHIL” value [1] is reported as 0 CELLS/uL, the “ABSOLUTE EOSINOPHIL” value [1] is reported as 196 CELLS/uL and the “ABSOLUTE LYMPHOCYTE” value [1] is reported as 15823.67 CELLS/uL. The “ABSOLUTE MONOCYTE” value [1] was 436.67 CELLS/uL, the “ABSOLUTE SEGMENTED NEUTROPHIL” value [1] was 2110.33 CELLS/uL and the BASOPHIL [1] was 0%. The EOSINOPHIL [1] was 1%, the “ERYTHROCYTE COUNT” value [1] was 5.33 x10E6/uL and the HEMATOCRIT [1] was 33.03%. The HEMOGLOBIN [1] was 13.6 G/DL, the “LEUKOCYTE COUNT” value [1] was 18.57 x10E3/uL and the LYMPHOCYTE [1] was 85.33%. For the same compound, the “MEAN CORPUSCULAR HEMOGLOBIN” value [1] was 25.53 pg, the “MEAN CORPUSCULAR HEMOGLOBIN CONCENTRATION” value [1] was 41.13 G/DL and the “MEAN CORPUSCULAR VOLUME” value [1] was 61.93 fL. For the same compound, the MONOCYTE [1] was 2.33%, the NEUTROPHIL [1] was 11.33% and the “NUCLEATED RED BLOOD CELLS” value [1] was 0 /100WBC. The “PLATELET COUNT” value [1] was 1316.33 x10E3/uL, the “ALANINE AMINOTRANSFERASE” value [1] was 45.33 u/L and the ALBUMIN [1] was 4.4 G/DL. The “ALKALINE PHOSPHATASE” value [1] was 411.67 u/L, the “ASPARTATE AMINOTRANSFERASE” value [1] was 82 u/L and the “BLOOD UREA NITROGEN” value [1] was 13 mg/dL. For the same compound, the “CARBON DIOXIDE” value [1] was 29 mmol/L, the CHLORIDE [1] was 101.67 MEQ/L and the CHOLESTEROL [1] was 75.33 mg/dL. The “CREATINE PHOSPHOKINASE” value [1] was 214.67 u/L, the CREATININE [1] was 0.21 mg/dL and the GLUCOSE [1] was 167 mg/dL. The “LACTATE DEHYDROGENASE” value [1] was 203.67 u/L, the LIPASE [1] was 10.67 u/L and the PHOSPHORUS [1] was 11.53 mg/dL. For the same compound, the POTASSIUM [1] was 6.21 MEQ/L, the SODIUM [1] was 142.97 MEQ/L and the “TOTAL BILIRUBIN” value [1] was 0.13 mg/dL. The “TOTAL PROTEIN” value [1] was 5.97 G/DL, the “URIC ACID” value [1] was 1.73 mg/dL and the “ABSOLUTE BASOPHIL” value [2] was 0 CELLS/uL. The “ABSOLUTE EOSINOPHIL” value [2] was 0 CELLS/uL, the “ABSOLUTE LYMPHOCYTE” value [2] was 15583 CELLS/uL and the “ABSOLUTE MONOCYTE” value [2] was 59.33 CELLS/uL. For the same compound, the “ABSOLUTE SEGMENTED NEUTROPHIL” value [2] was 1491 CELLS/uL, the BASOPHIL [2] was 0% and the EOSINOPHIL [2] was 0%. The “ERYTHROCYTE COUNT” value [2] was 5.61 x10E6/uL, the HEMATOCRIT [2] was 35.17% and the HEMOGLOBIN [2] was 13.97 G/DL. The “LEUKOCYTE COUNT” value [2] was 17.13 x10E3/uL, the LYMPHOCYTE [2] was 91% and the “MEAN CORPUSCULAR HEMOGLOBIN” value [2] was 24.9 pg. For the same compound, the “MEAN CORPUSCULAR HEMOGLOBIN CONCENTRATION” value [2] was 39.73 G/DL, the “MEAN CORPUSCULAR VOLUME” value [2] was 62.7 fL and the MONOCYTE [2] was 0.33%. For the same compound, the NEUTROPHIL [2] was 8.67%, the “NUCLEATED RED BLOOD CELLS” value [2] was 0 /100WBC and the “PLATELET COUNT” value [2] was 1369.67 x10E3/uL. For the same compound, the “ALANINE AMINOTRANSFERASE” value [2] was 42.67 u/L, the ALBUMIN [2] was 3.6 G/DL and the “ALKALINE PHOSPHATASE” value [2] was 345.33 u/L. For the same compound, the “ASPARTATE AMINOTRANSFERASE” value [2] was 79.67 u/L, the “BLOOD UREA NITROGEN” value [2] was 16 mg/dL and the “CARBON DIOXIDE” value [2] was 25.67 mmol/L. The CHLORIDE [2] was 105 MEQ/L, the CHOLESTEROL [2] was 70.67 mg/dL and the “CREATINE PHOSPHOKINASE” value [2] was 215.33 u/L. The CREATININE [2] was 0.14 mg/dL, the GLUCOSE [2] was 166.67 mg/dL and the “LACTATE DEHYDROGENASE” value [2] was 174 u/L. It also gave an LIPASE [2] of 9 u/L, a PHOSPHORUS [2] of 10.3 mg/dL and a POTASSIUM [2] of 5.92 MEQ/L. For the same compound, the SODIUM [2] was 144.53 MEQ/L, the “TOTAL BILIRUBIN” value [2] was 0.2 mg/dL and the “TOTAL PROTEIN” value [2] was 5.43 G/DL. The “URIC ACID” value [2] was 1.73 mg/dL, the “ABSOLUTE BASOPHIL” value [3] was 0 CELLS/uL and the “ABSOLUTE EOSINOPHIL” value [3] was 250.33 CELLS/uL. The “ABSOLUTE LYMPHOCYTE” value [3] was 17058 CELLS/uL, the “ABSOLUTE MONOCYTE” value [3] was 0 CELLS/uL and the “ABSOLUTE SEGMENTED NEUTROPHIL” value [3] was 1425 CELLS/uL. For the same compound, the BASOPHIL [3] was 0%, the EOSINOPHIL [3] was 1.33% and the “ERYTHROCYTE COUNT” value [3] was 5.31 x10E6/uL. For the same compound, the HEMATOCRIT [3] was 33.13%, the HEMOGLOBIN [3] was 13.6 G/DL and the “LEUKOCYTE COUNT” value [3] was 18.73 x10E3/uL. For the same compound, the LYMPHOCYTE [3] was 90.33%, the “MEAN CORPUSCULAR HEMOGLOBIN” value [3] was 25.67 pg and the “MEAN CORPUSCULAR HEMOGLOBIN CONCENTRATION” value [3] was 41.03 G/DL. For the same compound, the “MEAN CORPUSCULAR VOLUME” value [3] was 62.53 fL, the MONOCYTE [3] was 0% and the NEUTROPHIL [3] was 8.33%. The “NUCLEATED RED BLOOD CELLS” value [3] was 0 /100WBC, the “PLATELET COUNT” value [3] was 1420 x10E3/uL and the “ALANINE AMINOTRANSFERASE” value [3] was 47.33 u/L. The ALBUMIN [3] was 3.93 G/DL, the “ALKALINE PHOSPHATASE” value [3] was 346 u/L and the “ASPARTATE AMINOTRANSFERASE” value [3] was 73 u/L. The “BLOOD UREA NITROGEN” value [3] was 14.33 mg/dL, the “CARBON DIOXIDE” value [3] was 30 mmol/L and the CHLORIDE [3] was 104 MEQ/L. The CHOLESTEROL [3] was 72.33 mg/dL, the “CREATINE PHOSPHOKINASE” value [3] was 164.33 u/L and the CREATININE [3] was 0.11 mg/dL. The GLUCOSE [3] was 141 mg/dL, the “LACTATE DEHYDROGENASE” value [3] was 161 u/L and the LIPASE [3] was 10 u/L. For the same compound, the PHOSPHORUS [3] was 10.57 mg/dL, the POTASSIUM [3] was 6.08 MEQ/L and the SODIUM [3] was 142.83 MEQ/L. The “TOTAL BILIRUBIN” value [3] was 0.1 mg/dL, the “TOTAL PROTEIN” value [3] was 5.37 G/DL and the “URIC ACID” value [3] was 1.4 mg/dL.
